Results reported in US20070185183A1, “Indolinesulphanilic acid amides as ppar-delta modulators” (Bayer HealthCare AG, priority 2003, published 2007).

Molecular target: T1, human PPARδ receptor (Homo sapiens, UniProt Q03181)
T1 construct: expressed in transfected cells
T1 sequence (Q03181 211-439 limits assumed): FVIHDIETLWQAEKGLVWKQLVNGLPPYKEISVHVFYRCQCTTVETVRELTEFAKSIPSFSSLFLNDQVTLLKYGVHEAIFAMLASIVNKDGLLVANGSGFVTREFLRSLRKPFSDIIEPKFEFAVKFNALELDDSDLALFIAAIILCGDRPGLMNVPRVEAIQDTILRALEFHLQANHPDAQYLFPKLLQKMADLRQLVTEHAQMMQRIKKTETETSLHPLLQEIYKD
Assay: Cellular transactivation assay (GAL4-PPARδ chimera, luciferase reporter)
Assay type: cell-based
Settings: GAL4-PPARδ chimera stably expressed in CHO cells, 24 hours stimulation
Description: A cellular assay is used to identify activators of the peroxisome proliferator-activated receptor delta (PPAR-delta).
Since mammalian cells contain different endogenous nuclear receptors which may complicate an unambiguous interpretation of the results, an established chimera system is used in which the ligand binding domain of the human PPARδ receptor is fused to the DNA binding domain of the yeast transcription factor GAL4. The resulting GAL4-PPARδ chimera is co-transfected and stably expressed in CHO cells having a reporter construct.
The GAL4-PPARδ expression construct contains the ligand binding domain of PPARδ (amino acids […]), which is PCR-amplified and cloned into the vector pcDNA3.1. This vector already contains the GAL4 DNA binding domain (amino acids 1-147) of the vector pFC2-dbd (Stratagene). […]
CHO (chinese hamster ovary) cells are sown in CHO-A-SFM medium (GIBCO), supplemented by 2.5% foetal calf serum and 1% penicillin/streptomycin (GIBCO), at a cell density of 2×10^3 cells per well in a 384-well plate (Greiner). […] After a stimulation period of 24 hours, the luciferase activity is measured using a video camera. The relative light units measured give, as a function of the substance concentration, a sigmoidal stimulation curve. The EC50 values are calculated using the computer program GraphPad PRISM (Version 3.02).

CN(CC(=O)O)c1ccc(S(=O)(=O)N2CC(C)(C)c3cc(-c4ccc(C(F)(F)F)cc4)ccc32)cc1 [Working Example 1, N-[4-({3,3-Dimethyl-5-[4-(trifluoromethyl)phenyl]-2,3-dihydro-1H-indol-1-yl}sulphonyl)phenyl]-N-methylglycine]
EC50: 8.5 nM
